According to PubChem BioAssay AID1259411 (Chemical Carcinogenesis Research Information System (CCRIS), 2018):
Calls of active or inactive are those of the source. No rule for the calls is given here.

System: rodent carcinogenicity bioassays, tumor incidence
Assay: CCRIS carcinogenicity studies
Method in brief: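 NCI-built, expert-reviewed records of carcinogenicity and related test outcomes (mutagenicity, tumor promotion/inhibition) compiled from published and report sources, historical span 1985-2011, not updated.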

| Compound | carcinogen call (Species: MOUSE, Strain/Sex: B6C3F1/FEMALE, Route: INHALATION, Dose: 0, 0.12, 0.5, 1 PPM 6 HR/D 5 D/WK FOR 105 WK (STUDY DURATION: 105 WK), Dose: 0, 0.12, 0.5, 1 PPM 6 HR/D 5 D/WK FOR 105 WK (STUDY DURATION: 105 WK), Tumor Site: Type of Lesion: LUNG (ALVEOLAR/BRONCHIOLAR): ADENOMA OR CARCINOMA) | carcinogen call (Species: MOUSE, Strain/Sex: B6C3F1/FEMALE, Route: INHALATION, Dose: 0, 0.5, 1 PPM 6 HR/D 5 D/WK FOR 130 WK (STUDY DURATION: 130 WK), Dose: 0, 0.5, 1 PPM 6 HR/D 5 D/WK FOR 130 WK (STUDY DURATION: 130 WK), Tumor Site: Type of Lesion: LUNG (ALVEOLAR/BRONCHIOLAR): ADENOMA) | carcinogen call (Species: MOUSE, Strain/Sex: B6C3F1/MALE, Route: INHALATION, Dose: 0, 0.12, 0.5, 1 PPM 6 HR/D 5 D/WK FOR 105 WK (STUDY DURATION: 105 WK), Dose: 0, 0.12, 0.5, 1 PPM 6 HR/D 5 D/WK FOR 105 WK (STUDY DURATION: 105 WK), Tumor Site: Type of Lesion: LUNG: ALVEOLAR/BRONCHIOLAR ADENOMA OR CARCINOMA) | carcinogen call (Species: MOUSE, Strain/Sex: B6C3F1/MALE, Route: INHALATION, Dose: 0, 0.5, 1 PPM 6 HR/D 5 D/WK FOR 130 WK (STUDY DURATION: 130 WK), Dose: 0, 0.5, 1 PPM 6 HR/D 5 D/WK FOR 130 WK (STUDY DURATION: 130 WK), Tumor Site: Type of Lesion: LUNG: ALVEOLAR/BRONCHIOLAR ADENOMA OR CARCINOMA) | carcinogen call (Species: RAT, Strain/Sex: F344/FEMALE, Route: INHALATION, Dose: 0, 0.12, 0.5, 1 PPM 6 HR/D 5 D/WK FOR 20 MO (STUDY DURATION: 20 MO), Dose: 0, 0.12, 0.5, 1 PPM 6 HR/D 5 D/WK FOR 20 MO (STUDY DURATION: 20 MO)) | carcinogen call (Species: RAT, Strain/Sex: F344/FEMALE, Route: INHALATION, Dose: 0, 0.12, 0.5, 1 PPM 6 HR/D 5 D/WK FOR 105 WK (STUDY DURATION: 105 WK), Dose: 0, 0.12, 0.5, 1 PPM 6 HR/D 5 D/WK FOR 105 WK (STUDY DURATION: 105 WK)) | carcinogen call (Species: RAT, Strain/Sex: F344/FEMALE, Route: INHALATION, Dose: 0, 0.5, 1 PPM 6 HR/D 5 D/WK FOR 125 WK (STUDY DURATION: 125 WK), Dose: 0, 0.5, 1 PPM 6 HR/D 5 D/WK FOR 125 WK (STUDY DURATION: 125 WK)) | carcinogen call (Species: RAT, Strain/Sex: F344/MALE, Route: INHALATION, Dose: 0, 0.12, 0.5, 1 PPM 6 HR/D 5 D/WK FOR 20 MO (STUDY DURATION: 20 MO), Dose: 0, 0.12, 0.5, 1 PPM 6 HR/D 5 D/WK FOR 20 MO (STUDY DURATION: 20 MO)) | carcinogen call (Species: RAT, Strain/Sex: F344/MALE, Route: INHALATION, Dose: 0, 0.12, 0.5, 1 PPM 6 HR/D 5 D/WK FOR 105 WK (STUDY DURATION: 105 WK), Dose: 0, 0.12, 0.5, 1 PPM 6 HR/D 5 D/WK FOR 105 WK (STUDY DURATION: 105 WK)) | carcinogen call (Species: RAT, Strain/Sex: F344/MALE, Route: INHALATION, Dose: 0, 0.5, 1 PPM 6 HR/D 5 D/WK FOR 125 WK (STUDY DURATION: 125 WK), Dose: 0, 0.5, 1 PPM 6 HR/D 5 D/WK FOR 125 WK (STUDY DURATION: 125 WK)) | carcinogen call (Species: MOUSE, Strain/Sex: ICR/FEMALE, Route: INTRAPERITONEAL, Dose: 0, 8 NMOL IN 5 µL DMSO ON D 1, 16 NMOL IN 10 µL ON D 8 AND 32 NMOL IN 20 µL ON D 15 OF LIFE (STUDY DURATION: 35 WK), Tumor Site: Type of Lesion: LUNG: TUMOR) | carcinogen call (Species: MOUSE, Strain/Sex: ICR/FEMALE, Route: INTRAPERITONEAL, Dose: 0, 8 NMOL IN 5 µL DMSO TO PUPS ON D 1/OF LIFE THEN 16 NMOL IN 10 µL ON D 8 AND 3 NMOL IN 20 µL ON D 15 (STUDY DURATION:, Tumor Site: Type of Lesion: LUNG: TUMOR) | carcinogen call (Species: MOUSE, Strain/Sex: ICR/FEMALE, Route: INTRAPERITONEAL, Dose: 8 NMOL/5 µL DMSO ON DAY 1, 16 NMOL/10 µL ON DAY 8, AND 32 NMOL/20 µL ON DAY 15 OF AGE (STUDY DURATION: 35 WK), Tumor Site: Type of Lesion: LUNG: TUMORS) | carcinogen call (Species: MOUSE, Strain/Sex: ICR/MALE, Route: INTRAPERITONEAL, Dose: 0, 8 NMOL IN 5 µL DMSO ON D 1, 16 NMOL IN 10 µL ON D 8 AND 32 NMOL IN 20 µL ON D 15 OF LIFE (STUDY DURATION: 35 WK), Tumor Site: Type of Lesion: LUNG: TUMOR, LIVER: TUMOR) | carcinogen call (Species: MOUSE, Strain/Sex: ICR/MALE, Route: INTRAPERITONEAL, Dose: 0, 8 NMOL IN 5 µL DMSO TO PUPS ON D 1/OF LIFE THEN 16 NMOL IN 10 µL ON D 8 AND 3 NMOL IN 20 µL ON D 15 (STUDY DURATION:, Tumor Site: Type of Lesion: LUNG: TUMOR, LIVER: TUMOR) | carcinogen call (Species: MOUSE, Strain/Sex: ICR/MALE, Route: INTRAPERITONEAL, Dose: 8 NMOL/5 µL DMSO ON DAY 1, 16 NMOL/10 µL ON DAY 8, AND 32 NMOL/20 µL ON DAY 15 OF AGE (STUDY DURATION: 35 WK), Tumor Site: Type of Lesion: LUNG: TUMORS, LIVER: TUMORS) |
| --- | --- | --- | --- | --- | --- | --- | --- | --- | --- | --- | --- | --- | --- | --- | --- | --- |
| O=[O+][O-] | active; positive | active; positive | equivocal | equivocal | inactive; negative | inactive; negative | inactive; negative | inactive; negative | inactive; negative | inactive; negative |  |  |  |  |  |  |
| Cc1cc2ccccc2c2ccc3c(c12)[C@@H]1O[C@@H]1[C@H](O)[C@H]3O |  |  |  |  |  |  |  |  |  |  | active; positive | active; positive | active; positive | active; positive | active; positive | active; positive |
